Measured values from patent publication US20250221966A1, “RXFP1 AGONISTS” (BRISTOL-MYERS SQUIBB COMPANY, priority 2021, published 2025).
Structures can show the parent of a compound that is named as a salt.

These compounds were tested against T1, human RXFP1 (Homo sapiens, UniProt Q9HBX9) (assay: RXFP1 cAMP assay (hRXFP1 HEK293 cAMP assay, HTRF)). Settings: HEK293 cells stably expressing human RXFP1, 30 min at room temperature, read-out: cAMP hRXFP1 HEK293 Assay EC50.
T1 construct: expressed in transfected cells
T1 sequence (Q9HBX9 1-757): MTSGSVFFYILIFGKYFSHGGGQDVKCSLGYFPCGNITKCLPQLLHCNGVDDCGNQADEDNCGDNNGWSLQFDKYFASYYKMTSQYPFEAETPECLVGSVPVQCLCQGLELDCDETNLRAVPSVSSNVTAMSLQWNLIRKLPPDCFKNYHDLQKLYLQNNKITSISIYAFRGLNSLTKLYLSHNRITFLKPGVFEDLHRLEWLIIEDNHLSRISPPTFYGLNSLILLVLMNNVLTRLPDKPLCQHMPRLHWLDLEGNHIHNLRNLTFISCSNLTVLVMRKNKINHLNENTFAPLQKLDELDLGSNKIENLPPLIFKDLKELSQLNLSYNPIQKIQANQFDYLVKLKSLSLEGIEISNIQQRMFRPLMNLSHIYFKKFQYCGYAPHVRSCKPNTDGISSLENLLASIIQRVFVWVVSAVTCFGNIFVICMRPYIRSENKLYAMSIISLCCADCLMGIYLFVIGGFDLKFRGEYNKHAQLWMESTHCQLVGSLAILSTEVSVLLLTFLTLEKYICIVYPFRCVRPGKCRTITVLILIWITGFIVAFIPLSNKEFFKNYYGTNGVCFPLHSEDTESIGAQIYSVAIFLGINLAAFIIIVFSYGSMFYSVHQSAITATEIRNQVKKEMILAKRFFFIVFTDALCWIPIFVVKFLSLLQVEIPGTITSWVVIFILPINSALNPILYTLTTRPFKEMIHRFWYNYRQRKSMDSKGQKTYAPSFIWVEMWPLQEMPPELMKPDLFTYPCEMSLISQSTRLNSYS
Assay type: cell-based
Summary of the method: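 Intracellular cAMP was read by HTRF, with potency fitted to a 4-parameter logistic curve. Compound exposure (0.010 nM–50 μM final, 2% DMSO) lasted 30 min at room temperature. Cells were hRXFP1-HEK293 at 1500 per well in IBMX-containing (0.5 mM) HEPES-buffered HBSS.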

SMILES	EC50 [nM]
COC(=O)c1cnn2cc(-c3ccc(OC)c(C(=O)N[C@@H]4C5CCC(/C5=C/C(F)(F)F)[C@@H]4C(=O)Nc4ccc(F)c(C(F)(F)F)c4)c3)ccc12 (some centres unmarked) [compound 313]	90
COc1ccc(C2=NOC3CC(CO)CC23)cc1C(=O)N[C@H]1[C@@H](C(=O)N[C@H](C)C2(C)CC2)[C@H]2CC[C@@H]1/C2=C\c1ccncn1 (some centres unmarked) [compound 807]	2.1
COc1ccc(C2=NO[C@@H]3CC[C@@H](O)[C@H]23)cc1C(=O)N[C@H]1[C@@H](C(=O)Nc2ccc(F)c(C(F)(F)F)c2)[C@H]2CC[C@@H]1/C2=C\C1CC1 (single isomer, unassigned) [compound 655]	303
C=C/C=C1\C2CCC1[C@H](C(=O)Nc1ccc(F)c(C(F)(F)F)c1)[C@@H]2NC(=O)c1cc(-c2cc(C(=O)O)ccc2F)ccc1OC (some centres unmarked) [compound 158]	100
COc1ccc(-c2cccnc2)cc1C(=O)N[C@H]1[C@@H](C(=O)Nc2ccc(F)c(C(F)(F)F)c2)[C@H]2CC[C@@H]1/C2=C\C(F)(F)F [Example 310, (1R,2S,3R,4R,Z)—N-(4-fluoro-3-(trifluoromethyl)phenyl)-3-(2-methoxy-5-(pyridin-3-yl)benzamido)-7-(2,2,2-trifluoroethylidene)bicyclo[2.2.1]heptane-2-carboxamide]	162
COc1ccc(C2=NOC3CC(C)(O)CC23)cc1C(=O)N[C@H]1[C@@H](C(=O)Nc2ccc(F)c(C(F)(F)F)c2)[C@H]2CC[C@@H]1/C2=C\C1CC1 (some centres unmarked) [compound 858]	1.3
COc1ccc(-c2ccn(CC(=O)O)n2)cc1C(=O)N[C@@H]1C2CCC(/C2=C/C(F)(F)F)[C@@H]1C(=O)Nc1ccc(F)c(C(F)(F)F)c1 (some centres unmarked) [compound 342]	390
COc1ccc(C2=NOC3COCC23)cc1C(=O)N[C@H]1[C@@H](C(=O)NC2CCC(C(F)(F)F)C2)[C@H]2CC[C@@H]1/C2=C\C1CC1 (single isomer, unassigned) [Example 629]	180
COc1ccc(-c2cc(C(OC(=O)Nc3ccccc3)C(F)(F)F)ccc2F)cc1C(=O)N[C@@H]1C2CCC(/C2=C/C2CC2)[C@@H]1C(=O)Nc1ccc(F)c(C(F)(F)F)c1 (single isomer, unassigned) [compound 224]	2
CCC/C=C1\[C@H]2CC[C@@H]1[C@H](C(=O)Nc1ccc(F)c(C(F)(F)F)c1)[C@@H]2NC(=O)c1cc(C2=NOC3CC(CO)CC23)cc(F)c1OC (some centres unmarked) [compound 793]	2.2
CCCC/C=C1\C2CCC1[C@H](C(=O)Nc1ccc(F)c(C(F)(F)F)c1)[C@@H]2NC(=O)c1cc(C2=NOC(CO)C2)ccc1OC (some centres unmarked) [compound 383]	127
COc1ccc(-c2cc(-c3nnn[nH]3)ccc2F)cc1C(=O)N[C@@H]1C2CCC(C2=C(C)C)[C@@H]1C(=O)Nc1ccc(F)c(C(F)(F)F)c1 (some centres unmarked) [Example 108]	330
COc1ccc(C2=NOC3COCC23)cc1C(=O)N[C@H]1[C@@H](C(=O)NC2CCC(C#N)C2)[C@H]2CC[C@@H]1/C2=C\C1CC1 (some centres unmarked) [Example 664]	367
COc1ccc(C2=NOC(CO)C2)cc1C(=O)N[C@H]1[C@@H](C(=O)Nc2ccc(F)c(C(F)(F)F)c2)[C@H]2CC[C@@H]1/C2=C\C1CCC1 (mixture of isomers) [Example 378, (1R,2S,3R,4R,Z)-7-(cyclobutylmethylene)-N-(4-fluoro-3-(trifluoromethyl)phenyl)-3-(5-(5-(hydroxymethyl)-4,5-dihydroisoxazol-3-yl)-2-methoxybenzamido)bicyclo[2.2.1]heptane-2-carboxamide]	16
COc1ccc(C2=NO[C@H]3CC(CO)C[C@@H]23)cc1C(=O)N[C@H]1[C@@H](C(=O)Nc2ccc(F)c(C(F)(F)F)c2)[C@H]2CC[C@@H]1/C2=C\CC1CCC1 (some centres unmarked) [compound 837]	4.3
COc1ccc(C2=NOC3COCC23)cc1C(=O)N[C@H]1[C@@H](C(=O)NCc2ccccc2C#N)[C@H]2CC[C@@H]1/C2=C\C1CC1 (some centres unmarked) [compound 613]	137
COc1ccc(-c2cc(C(=O)NS(C)(=O)=O)ccc2F)cc1C(=O)N[C@@H]1C2CCC(C2=C(C)C)[C@@H]1C(=O)Nc1ccc(F)c(C(F)(F)F)c1 (some centres unmarked) [compound 131]	130
COc1cc(C)c(-c2nnc(CO)s2)cc1C(=O)N[C@H]1[C@@H](C(=O)Nc2ccc(F)c(C(F)(F)F)c2)[C@H]2CC[C@@H]1/C2=C\C1CC1 [compound 808]	4.2
COc1ccc(-c2cc(C(N)=O)on2)cc1C(=O)N[C@@H]1C2CCC(/C2=C/C2CC2)[C@@H]1C(=O)Nc1ccc(F)c(C(F)(F)F)c1 (some centres unmarked) [compound 426]	45
COc1ccc(C2=NOC3CC(O)CC23)cc1C(=O)N[C@H]1[C@@H](C(=O)Nc2ccc(F)c(C(F)(F)F)c2)[C@H]2CC[C@@H]1/C2=C\C1CCC1 (mixture of isomers) [Example 406, (1R,2S,3R,4R,Z)-7-(cyclobutylmethylene)-N-(4-fluoro-3-(trifluoromethyl)phenyl)-3-(5-(5-hydroxy-3a,5,6,6a-tetrahydro-4H-cyclopenta[d]isoxazol-3-yl)-2-methoxybenzamido)bicyclo[2.2.1]heptane-2-carboxamide]	48
CN(C)c1c(Cl)cc(C2=NOC3COCC23)cc1C(=O)N[C@H]1[C@@H](C(=O)Nc2ccc(F)c(C(F)(F)F)c2)[C@H]2CC[C@@H]1/C2=C\C1CC1 (single isomer, unassigned) [compound 474]	5

Second part, the compound after the results:

EC50 [nM]	SMILES
5	COc1ccc(-c2ccc(N3CCOCC3)c(C(=O)O)c2)cc1C(=O)N[C@H]1[C@@H](C(=O)Nc2ccc(F)c(C(F)(F)F)c2)[C@H]2CC[C@@H]1/C2=C\C1CC1 [Example 249, 3′-(((1R,2R,3S,4R,Z)-7-(cyclopropylmethylene)-3-((4-fluoro-3-(trifluoromethyl)phenyl)carbamoyl)bicyclo[2.2.1]heptan-2-yl)carbamoyl)-4′-methoxy-4-morpholino-[1,1′-biphenyl]-3-carboxylic acid, TFA]
540	COc1ccc(-c2cc(C(=O)O)ccc2F)cc1C(=O)N[C@@H]1C2CCC(/C2=C/C2CC2)[C@@H]1C(=O)NCc1ccccc1OC(F)(F)F (some centres unmarked) [compound 306]
570	COc1cc(F)c(F)cc1C(=O)N[C@@H]1C2CCC(/C2=C/c2cnn(Cc3ccccc3)c2)[C@@H]1C(=O)Nc1ccc(F)c(C(F)(F)F)c1 (some centres unmarked) [compound 61]
240	COc1ccc(C2=NOC3COCC23)cc1C(=O)N[C@H]1[C@@H](C(=O)NCc2ccc(Cl)cc2Cl)[C@H]2CC[C@@H]1/C2=C\C1CC1 (some centres unmarked) [compound 646]
1	COc1ccc(C2=NOC3COCC23)cc1C(=O)N[C@@H]1C2CCC(/C2=C/C2CCC2)[C@@H]1C(=O)Nc1ccc(F)c(C(F)(F)F)c1 (single isomer, unassigned) [Example 416]
972	COc1ccc(N2CC(=O)NC2=O)cc1C(=O)N[C@H]1[C@@H](C(=O)Nc2ccc(F)c(C(F)(F)F)c2)[C@H]2CC[C@@H]1/C2=C\C1CC1 [compound 697]
563	COc1ccc(C2=NOC3COCC23)cc1C(=O)N[C@H]1[C@@H](C(=O)NC2CCOC(C)(C)C2)[C@H]2CC[C@@H]1/C2=C\C1CC1 (single isomer, unassigned) [compound 679]
3.3	COc1ccc(C2=NOC3CC(C)(CO)CC23)cc1C(=O)N[C@H]1[C@@H](C(=O)Nc2ccc(F)c(C(F)(F)F)c2)[C@H]2CC[C@@H]1/C2=C\C1CCCC1 (some centres unmarked) [compound 749]
17	COc1cc(F)c(C2=NOC3COCC23)cc1C(=O)N[C@H]1[C@@H](C(=O)Nc2ccc(F)c(C(F)(F)F)c2)[C@H]2CC[C@@H]1/C2=C\C1CC1 (stereo partly drawn) [Example 419, (1R,2S,3R,4R,Z)-7-(cyclopropylmethylene)-3-(4-fluoro-2-methoxy-5-(3a,4,6,6a-tetrahydrofuro[3,4-d]isoxazol-3-yl)benzamido)-N-(4-fluoro-3-(trifluoromethyl)phenyl)bicyclo[2.2.1]heptane-2-carboxamide]
3.1	COc1ccc(C2=NO[C@H]3COC[C@@H]23)cc1C(=O)N[C@H]1[C@@H](C(=O)Nc2ccc(F)c(C(F)(F)F)c2)[C@H]2CC[C@@H]1/C2=C\C(C)C [compound 827]
240	COc1cc(F)c(F)cc1C(=O)N[C@@H]1C2CCC(/C2=C/c2ccccc2)[C@]1(F)C(=O)Nc1ccc(F)c(C(F)(F)F)c1 (some centres unmarked) [Example 53]
37.4	CCC(CC)CNC(=O)[C@@H]1[C@H](NC(=O)c2cc(C3=NOC4COCC34)ccc2OC)[C@@H]2CC[C@H]1/C2=C/C1CC1 (some centres unmarked) [compound 553]
2.2	COc1ccc(-c2cc([C@H](OC(=O)NC3CCC3)C(F)(F)F)ccc2F)cc1C(=O)N[C@@H]1C2CCC(/C2=C/C2CCCC2)[C@@H]1C(=O)Nc1ccc(F)c(C(F)(F)F)c1 (some centres unmarked) [compound 922]

Same assay, conditions: cAMP hRXFP1 HEK293 Assay EC50, HEK293 cells stably expressing human RXFP1, 30 min at room temperature

EC50 [nM]	SMILES
360	COc1ccc(-c2cc(C(=O)O)ccc2F)cc1C(=O)N[C@H]1[C@@H](C(=O)Nc2ccc(F)c(C(F)(F)F)c2)[C@H]2CC[C@@H]1/C2=C/c1ccccc1 [compound 91]
